Results on 19 compounds are retold here after US20230257372A1 (CHONG KUN DANG PHARMACEUTICAL CORP., priority 2020, published 2023).

One assay deals with T1, human recombinant HDAC6 (Homo sapiens, UniProt Q9UBN7).
T1 construct: purchased Calbiochem Inc. 382180
T1 sequence (Q9UBN7 1-1215): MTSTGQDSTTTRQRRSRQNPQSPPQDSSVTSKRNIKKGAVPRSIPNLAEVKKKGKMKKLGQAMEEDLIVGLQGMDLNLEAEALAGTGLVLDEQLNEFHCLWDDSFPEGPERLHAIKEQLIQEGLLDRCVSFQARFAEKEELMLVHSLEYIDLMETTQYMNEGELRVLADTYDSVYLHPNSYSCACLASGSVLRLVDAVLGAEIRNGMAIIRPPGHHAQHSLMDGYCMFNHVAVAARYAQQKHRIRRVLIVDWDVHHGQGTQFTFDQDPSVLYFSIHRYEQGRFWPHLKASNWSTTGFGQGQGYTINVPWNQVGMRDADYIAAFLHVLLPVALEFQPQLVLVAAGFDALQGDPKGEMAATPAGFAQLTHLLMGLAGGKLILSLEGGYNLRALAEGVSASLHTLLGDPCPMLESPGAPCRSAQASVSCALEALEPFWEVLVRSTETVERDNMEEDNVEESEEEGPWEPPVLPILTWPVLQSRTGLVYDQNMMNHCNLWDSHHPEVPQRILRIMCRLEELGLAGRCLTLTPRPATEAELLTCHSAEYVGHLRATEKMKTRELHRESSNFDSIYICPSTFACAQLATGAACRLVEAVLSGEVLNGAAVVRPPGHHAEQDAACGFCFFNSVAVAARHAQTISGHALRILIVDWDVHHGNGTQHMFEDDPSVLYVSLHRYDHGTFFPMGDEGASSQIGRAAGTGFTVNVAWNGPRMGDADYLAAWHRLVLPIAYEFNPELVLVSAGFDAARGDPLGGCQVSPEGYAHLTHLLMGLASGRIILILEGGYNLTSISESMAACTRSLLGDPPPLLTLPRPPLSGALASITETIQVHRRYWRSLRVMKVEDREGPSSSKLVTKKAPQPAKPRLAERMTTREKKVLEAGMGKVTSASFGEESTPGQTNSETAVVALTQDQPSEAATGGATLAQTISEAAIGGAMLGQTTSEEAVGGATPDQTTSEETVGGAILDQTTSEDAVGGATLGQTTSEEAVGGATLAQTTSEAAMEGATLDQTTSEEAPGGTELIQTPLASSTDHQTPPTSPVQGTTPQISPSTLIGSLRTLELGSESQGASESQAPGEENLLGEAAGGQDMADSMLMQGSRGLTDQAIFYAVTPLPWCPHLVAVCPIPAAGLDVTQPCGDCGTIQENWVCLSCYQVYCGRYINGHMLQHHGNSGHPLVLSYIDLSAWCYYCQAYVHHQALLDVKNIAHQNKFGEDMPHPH
Description: HDAC6 enzyme activity inhibition (HDAC Fluorimetric Drug Discovery Kit). The assay is classed as biochemical. The conditions noted are these: for HDAC6 selectivity (fold): HDAC6 over HDAC1; for IC50: human recombinant HDAC6, same protocol as HDAC1. The procedure, abridged:
(§1)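 Enzyme at 0.3 µg per well was reacted with 10 μM fluorogenic substrate in presence of 5-fold diluted compound, 30° C for 60 min.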

The target of another assay is T2, human recombinant HDAC1 (Homo sapiens, UniProt Q13547).
T2 construct: purchased Enzo Life Science, Inc. BML-SE456
Description: HDAC1 enzyme activity inhibition (HDAC Fluorimetric Drug Discovery Kit). The assay is classed as biochemical. The following applies: human recombinant HDAC1, Fluor de Lys substrate, 30° C. 60 minutes; read-out: HDAC1. The procedure, abridged:
as §1

T2 sequence (Q13547 whole entry): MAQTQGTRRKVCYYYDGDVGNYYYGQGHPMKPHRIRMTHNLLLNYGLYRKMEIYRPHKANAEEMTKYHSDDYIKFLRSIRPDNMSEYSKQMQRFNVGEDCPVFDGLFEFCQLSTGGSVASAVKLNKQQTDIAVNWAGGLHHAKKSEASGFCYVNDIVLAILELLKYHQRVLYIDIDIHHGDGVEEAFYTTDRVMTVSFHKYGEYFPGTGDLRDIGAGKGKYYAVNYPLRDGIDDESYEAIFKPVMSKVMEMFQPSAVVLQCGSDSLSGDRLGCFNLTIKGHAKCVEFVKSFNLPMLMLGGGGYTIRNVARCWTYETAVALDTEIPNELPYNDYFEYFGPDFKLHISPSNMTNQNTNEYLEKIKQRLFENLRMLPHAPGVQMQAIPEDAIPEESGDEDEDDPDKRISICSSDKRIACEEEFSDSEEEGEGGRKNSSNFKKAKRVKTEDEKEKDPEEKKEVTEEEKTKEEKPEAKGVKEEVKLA

`Fc1cc(-c2nnc(C(F)F)o2)ccc1Cn1cc(-c2ccnc3[nH]ccc23)nn1` [Compound 4526, 2-(4-((4-(1H-pyrrolo[2,3-b]pyridin-4-yl)-1H-1,2,3-triazol-1-yl)methyl)-3-fluorophenyl)-5-(difluoromethyl)-1,3,4-oxadiazole]: the “HDAC6 selectivity (fold)” value at human recombinant HDAC6 is on record as 3846 fold. In addition, the IC50 at human recombinant HDAC6 is 13 nM; on human recombinant HDAC1 it was above 50000 nM.
Take `FC(F)c1nnc(-c2ccc(Cn3cc(-c4ccnc5[nH]ccc45)nn3)cc2)o1` [Compound 4527, 2-(4-((4-(1H-pyrrolo[2,3-b]pyridin-4-yl)-1H-1,2,3-triazol-1-yl)methyl)phenyl)-5-(difluoromethyl)-1,3,4-oxadiazole]: at human recombinant HDAC6, the “HDAC6 selectivity (fold)” value stood at 4310 fold and the IC50 was found to be 11.6 nM. Besides, on human recombinant HDAC1, the IC50 is above 50000 nM.
Regarding `CN1CC(c2cccc(-c3cn(Cc4ccc(-c5nnc(C(F)F)o5)cc4)nn3)c2)C1` [Compound 4528, 2-(difluoromethyl)-5-(4-((4-(3-(1-methylazetidin-3-yl)phenyl)-1H-1,2,3-triazol-1-yl)methyl)phenyl)-1,3,4-oxadiazole], at human recombinant HDAC6, the “HDAC6 selectivity (fold)” value is 371 fold and the IC50 was 135 nM. The IC50 at human recombinant HDAC1 is above 50000 nM.
The like results for `CN1Cc2cccc(-c3cn(Cc4ccc(-c5nnc(C(F)F)o5)cc4)nn3)c2C1` [Compound 4529, 2-(difluoromethyl)-5-(4-((4-(2-methylisoindolin-4-yl)-1H-1,2,3-triazol-1-yl)methyl)phenyl)-1,3,4-oxadiazole] were, in that order, 313 fold, 160 nM and above 50000 nM.
With `CCN1Cc2cccc(-c3cn(Cc4ccc(-c5nnc(C(F)F)o5)cc4)nn3)c2C1` [Compound 4530, 2-(difluoromethyl)-5-(4-((4-(2-ethylisoindolin-4-yl)-1H-1,2,3-triazol-1-yl)methyl)phenyl)-1,3,4-oxadiazole], the “HDAC6 selectivity (fold)” value on human recombinant HDAC6 was determined as 449 fold. Besides, the IC50 at human recombinant HDAC6 is 111 nM; at human recombinant HDAC1, above 50000 nM.
In the case of `CC(C)N1Cc2cccc(-c3cn(Cc4ccc(-c5nnc(C(F)F)o5)cc4)nn3)c2C1` [Compound 4531, 2-(difluoromethyl)-5-(4-((4-(2-isopropylisoindolin-4-yl)-1H-1,2,3-triazol-1-yl)methyl)phenyl)-1,3,4-oxadiazole], on human recombinant HDAC6, the “HDAC6 selectivity (fold)” value was 412 fold and the IC50 worked out at 121 nM. The IC50 at human recombinant HDAC1 is above 50000 nM.
Consider `FC(F)c1nnc(-c2ccc(Cn3cc(-c4cccc5c4CN(C4CCC4)C5)nn3)cc2)o1` [Compound 4532, 2-(4-((4-(2-cyclobutylisoindolin-4-yl)-1H-1,2,3-triazol-1-yl)methyl)phenyl)-5-(difluoromethyl)-1,3,4-oxadiazole], for which, at human recombinant HDAC6, the “HDAC6 selectivity (fold)” value was found to be 327 fold and the IC50 turned out to be 153 nM. Besides, the IC50 on human recombinant HDAC1 is above 50000 nM.
Turning to `FC(F)c1nnc(-c2ccc(Cn3cc(-c4cccc5c4CN(C4COC4)C5)nn3)cc2)o1` [Compound 4533, 2-(difluoromethyl)-5-(4-((4-(2-(oxetan-3-yl)isoindolin-4-yl)-1H-1,2,3-triazol-1-yl)methyl)phenyl)-1,3,4-oxadiazole], on human recombinant HDAC6, the “HDAC6 selectivity (fold)” value is 318 fold and the IC50 came to 157 nM. Besides, on human recombinant HDAC1, the IC50 is above 50000 nM.
In the case of `CN1Cc2cccc(-c3cn(Cc4ccc(-c5nnc(C(F)F)o5)cc4F)nn3)c2C1` [Compound 4534, 2-(difluoromethyl)-5-(3-fluoro-4-((4-(2-methylisoindolin-4-yl)-1H-1,2,3-triazol-1-yl)methyl)phenyl)-1,3,4-oxadiazole], on human recombinant HDAC6, the “HDAC6 selectivity (fold)” value was found to be 529 fold and the IC50 was 94.4 nM. The IC50 at human recombinant HDAC1 is above 50000 nM.
Turning to `CCN1Cc2cccc(-c3cn(Cc4ccc(-c5nnc(C(F)F)o5)cc4F)nn3)c2C1` [Compound 4535, 2-(difluoromethyl)-5-(4-((4-(2-ethylisoindolin-4-yl)-1H-1,2,3-triazol-1-yl)methyl)-3-fluorophenyl)-1,3,4-oxadiazole], on human recombinant HDAC6, the “HDAC6 selectivity (fold)” value is recorded as 512 fold and the IC50 worked out at 97.5 nM. For the same compound, the IC50 on human recombinant HDAC1 is above 50000 nM.
Taken in the same sequence, the figures for `CC(C)N1Cc2cccc(-c3cn(Cc4ccc(-c5nnc(C(F)F)o5)cc4F)nn3)c2C1` [Compound 4536, 2-(difluoromethyl)-5-(3-fluoro-4-((4-(2-isopropylisoindolin-4-yl)-1H-1,2,3-triazol-1-yl)methyl)phenyl)-1,3,4-oxadiazole] were 572 fold, 87.4 nM and above 50000 nM.
`Fc1cc(-c2nnc(C(F)F)o2)ccc1Cn1cc(-c2cccc3c2CN(C2CCC2)C3)nn1` [Compound 4537, 2-(4-((4-(2-cyclobutylisoindolin-4-yl)-1H-1,2,3-triazol-1-yl)methyl)-3-fluorophenyl)-5-(difluoromethyl)-1,3,4-oxadiazole]: at human recombinant HDAC6, the “HDAC6 selectivity (fold)” value is 657 fold and the IC50 is 76 nM. For the same compound, the IC50 at human recombinant HDAC1 was above 50000 nM.
The like results for `Fc1cc(-c2nnc(C(F)F)o2)ccc1Cn1cc(-c2cccc3c2CN(C2COC2)C3)nn1` [Compound 4538, 2-(difluoromethyl)-5-(3-fluoro-4-((4-(2-(oxetan-3-yl)isoindolin-4-yl)-1H-1,2,3-triazol-1-yl)methyl)phenyl)-1,3,4-oxadiazole] were, in that order, 539 fold, 92.7 nM and above 50000 nM.
Taken in the same sequence, the figures for `FC(F)c1nnc(-c2ccc(Cn3cc(-c4ccc5c(c4)CNC5)nn3)nc2)o1` [Compound 4539, 2-(difluoromethyl)-5-(6-((4-(isoindolin-5-yl)-1H-1,2,3-triazol-1-yl)methyl)pyridin-3-yl)-1,3,4-oxadiazole] were 776 fold, 64.4 nM and above 50000 nM.
On to `CN1Cc2ccc(-c3cn(Cc4ccc(-c5nnc(C(F)F)o5)cn4)nn3)cc2C1` [Compound 4540, 2-(difluoromethyl)-5-(6-((4-(2-methylisoindolin-5-yl)-1H-1,2,3-triazol-1-yl)methyl)pyridin-3-yl)-1,3,4-oxadiazole], for which, on human recombinant HDAC6, the “HDAC6 selectivity (fold)” value came to 583 fold. For the same compound, the values for the IC50 on human recombinant HDAC6 and on human recombinant HDAC1 were 85.7 nM and above 50000 nM, respectively.
For the compound `CC(C)N1Cc2ccc(-c3cn(Cc4ccc(-c5nnc(C(F)F)o5)cn4)nn3)cc2C1` [Compound 4541, 2-(difluoromethyl)-5-(6-((4-(2-isopropylisoindolin-5-yl)-1H-1,2,3-triazol-1-yl)methyl)pyridin-3-yl)-1,3,4-oxadiazole], at human recombinant HDAC6, the “HDAC6 selectivity (fold)” value was found to be 1470 fold and the IC50 is 34 nM. In addition, the IC50 on human recombinant HDAC1 was above 50000 nM.
Take `FC(F)c1nnc(-c2ccc(Cn3cc(-c4ccc5c(c4)CN(C4CCC4)C5)nn3)nc2)o1` [Compound 4542, 2-(6-((4-(2-cyclobutylisoindolin-5-yl)-1H-1,2,3-triazol-1-yl)methyl)pyridin-3-yl)-5-(difluoromethyl)-1,3,4-oxadiazole]: at human recombinant HDAC6, the “HDAC6 selectivity (fold)” value is listed as 1336 fold and the IC50 was found to be 37.4 nM. Further, the IC50 at human recombinant HDAC1 was above 50000 nM.
`FC(F)c1nnc(-c2ccc(Cn3cc(-c4ccc5c(c4)CN(C4COC4)C5)nn3)nc2)o1` [Compound 4543, 2-(difluoromethyl)-5-(6-((4-(2-(oxetan-3-yl)isoindolin-5-yl)-1H-1,2,3-triazol-1-yl)methyl)pyridin-3-yl)-1,3,4-oxadiazole]: the “HDAC6 selectivity (fold)” value at human recombinant HDAC6 stood at 1326 fold. Further, the IC50 at human recombinant HDAC6 was 37.7 nM; on human recombinant HDAC1 it was above 50000 nM.
For `FC(F)c1nnc(-c2ccc(Cn3cc(-c4ccc(CN5CCC5)cc4)nn3)cc2)o1` [Compound 4548, 2-(4-((4-(4-(azetidin-1-ylmethyl)phenyl)-1H-1,2,3-triazol-1-yl)methyl)phenyl)-5-(difluoromethyl)-1,3,4-oxadiazole], at human recombinant HDAC6, the “HDAC6 selectivity (fold)” value was 4545 fold and the IC50 was 13.1 nM. In addition, the IC50 at human recombinant HDAC1 was above 50000 nM.
